From US8080423B2, “Reagent containing protease reaction promoter and/or colorant stabilizer” (Asahi Kasei Pharma Corporation, priority 2004, dated 2011)

What was measured:
Format in all cases: physicochemical
[1] = Screening of stabilizer for colorant, DA64 (Example 13); details: 37° C.; for blank (distilled water) change in absorbance: DA-64, 750 nm, additives at conc. (1%; IDA 1 mM; Zn, Al 0.1 mM; ferrocyanide 0.01 mM; sorbitol 5%; DMSO 10%); for change in absorbance when 500 μM of hydrogen peroxide was measured: DA-64
Protocol: (§1) The following substances were used as test samples. Note that concentrations described in parentheses each represent a final concentration of the substance in the reagent R-1.
(§2) Tween-20 (1%), Brij35 (1%), Triton X-100 (1%), deoxycholic acid (1%), imino-diacetic acid (IDA; 1 mM), ZnSO4 (0.1 mM), AlCl3 (0.1 mM), potassium ferrocyanate (0.01 mM), sorbitol (5%), glucose (5%), sodium nitrite (2 mM), dimethylsulfoxide (DMSO; 10%) (those substances are manufactured by Wako Pure Chemical Industries, Inc.), 2-hydroxypropyl-β-cyclodextrin (2HP β CD; 0.5%, 2%, 5%) and methyl-β-cyclodextrin (M β CD; 0.5%, 2%, 5%) (those substances are manufactured by Nihon Shokuhin Kako Co., Ltd.).
(§3) 500 μl of the R-1 reagent and 500 μl of the R-2 which had been incubated to 37° C. were mixed. The mixture was incubated to 37° C. for 2 minutes, and absorbance thereof (A0) was measured. The mixture was added with 10 μl of 500 μM hydrogen peroxide or distilled water. The whole was incubated to 37° C., and absorbance exactly 5 minutes after the addition of hydrogen peroxide (A1) was measured, to calculate a change in absorbance ΔA (A1-A0). The absorbance was measured using a wavelength of 750 nm when DA64 was used as the colorant, a wavelength of 660 nm when DA67 was used as the colorant, and a wavelength of 570 nm when 4-AA-TOOS was used as the colorant.
(§4) Immediately after the preparation of the reagent, the reagent was preserved at 37° C. for 2 days and 9 days, and measurement of sensitivity of a blank which was distilled water and of hydrogen peroxide was performed.

[2] = Screening of stabilizer for colorant, DA67 (Example 13); details: 37° C.; for blank (distilled water) change in absorbance: DA-67, 660 nm; for change in absorbance when 500 μM of hydrogen peroxide was measured: DA-67
Protocol: as §1, §2, §3, §4

[3] = Screening of stabilizer for colorant, MBTH-TOOS (Example 13); details: MBTH-TOOS, 37° C.; for blank (distilled water) change in absorbance: 570 nm, additives at conc. (1%; IDA 1 mM; Zn, Al 0.1 mM; ferrocyanide 0.01 mM; sorbitol 5%; DMSO 10%)
[4] = Screening of stabilizer for colorant, overall statements (Example 13); details: Tables 2-1 and 2-2
Protocol: as §2, §3, §4

[5] = 0 days, additives at conc. (1%; IDA 1 mM; Zn, Al 0.1 mM; ferrocyanide 0.01 mM; sorbitol 5%; DMSO 10%)
[6] = 2 days, additives at conc. (1%; IDA 1 mM; Zn, Al 0.1 mM; ferrocyanide 0.01 mM; sorbitol 5%; DMSO 10%)
[7] = 9 days, additives at b284 conc. (Zn, Al 0.1 mM; ferrocyanide 0.01 mM)

Row | Substance | blank (distilled water) change in absorbance ([1]; 0 days) | blank (distilled water) change in absorbance ([1]; 2 days) | blank (distilled water) change in absorbance ([1]; 9 days) | change in absorbance when 500 μM of hydrogen peroxide was measured ([1]; 0 days, cyclodextrin 0.5%) | change in absorbance when 500 μM of hydrogen peroxide was measured ([1]; 0 days, cyclodextrin 2.0%) | change in absorbance when 500 μM of hydrogen peroxide was measured ([1]; 0 days, cyclodextrin 5.0%) | change in absorbance when 500 μM of hydrogen peroxide was measured ([1]; 2 days, cyclodextrin 0.5%) | change in absorbance when 500 μM of hydrogen peroxide was measured ([1]; 2 days, cyclodextrin 2.0%) | change in absorbance when 500 μM of hydrogen peroxide was measured ([1]; 2 days, cyclodextrin 5.0%) | change in absorbance when 500 μM of hydrogen peroxide was measured ([1]; 9 days, cyclodextrin 0.5%) | change in absorbance when 500 μM of hydrogen peroxide was measured ([1]; 9 days, cyclodextrin 2.0%) | change in absorbance when 500 μM of hydrogen peroxide was measured ([1]; 9 days, cyclodextrin 5.0%) | blank (distilled water) change in absorbance [2, 5] | blank (distilled water) change in absorbance [2, 6] | blank (distilled water) change in absorbance [2, 7] | change in absorbance when 500 μM of hydrogen peroxide was measured ([2]; 0 days, cyclodextrin 0.5%) | change in absorbance when 500 μM of hydrogen peroxide was measured ([2]; 0 days, cyclodextrin 2.0%) | change in absorbance when 500 μM of hydrogen peroxide was measured ([2]; 0 days, cyclodextrin 5.0%) | change in absorbance when 500 μM of hydrogen peroxide was measured ([2]; 2 days, cyclodextrin 0.5%) | change in absorbance when 500 μM of hydrogen peroxide was measured ([2]; 2 days, cyclodextrin 2.0%) | further results
1 | 2-hydroxypropyl-β-cyclodextrin [2HPβCD] | −0.007 Abs | 0.007 Abs | 0.010 Abs | 0.375 | 0.386 | 0.385 | 0.315 | 0.322 | 0.326 | 0.251 | 0.269 | 0.271 | 0.119 Abs | 0.762 Abs | 1.822 Abs | 0.531 | 0.522 | 0.528 | 0.301 | 0.306 | change in absorbance when 500 μM of hydrogen peroxide was measured ([2]; 2 days, cyclodextrin 5.0%): 0.309; change in absorbance when 500 μM of hydrogen peroxide was measured ([2]; 9 days, cyclodextrin 0.5%): 0.277; change in absorbance when 500 μM of hydrogen peroxide was measured ([2]; 9 days, cyclodextrin 2.0%): 0.279; change in absorbance when 500 μM of hydrogen peroxide was measured ([2]; 9 days, cyclodextrin 5.0%): 0.281; blank (distilled water) change in absorbance ([3]; 0 days): 0.166 Abs; blank (distilled water) change in absorbance ([3]; 2 days): 0.815 Abs; change in absorbance when 500 μM of hydrogen peroxide was measured ([3]; 0 days, cyclodextrin 0.5%): 0.199; change in absorbance when 500 μM of hydrogen peroxide was measured ([3]; 0 days, cyclodextrin 2.0%): 0.200; change in absorbance when 500 μM of hydrogen peroxide was measured ([3]; 0 days, cyclodextrin 5.0%): 0.203; change in absorbance when 500 μM of hydrogen peroxide was measured ([3]; 2 days, cyclodextrin 0.5%): 0.145; change in absorbance when 500 μM of hydrogen peroxide was measured ([3]; 2 days, cyclodextrin 2.0%): 0.155; change in absorbance when 500 μM of hydrogen peroxide was measured ([3]; 2 days, cyclodextrin 5.0%): 0.159; effect on the blank during preservation (in words) [4]: suppressing effects on the blank
2 | methyl-β-cyclodextrin [MβCD] | −0.01 Abs | 0.005 Abs | 0.006 Abs | 0.371 | 0.376 | 0.365 | 0.302 | 0.309 | 0.315 | 0.266 | 0.271 | 0.273 | 0.133 Abs | 0.657 Abs | 1.430 Abs | 0.516 | 0.519 | 0.515 | 0.355 | 0.361 | change in absorbance when 500 μM of hydrogen peroxide was measured ([2]; 2 days, cyclodextrin 5.0%): 0.364; change in absorbance when 500 μM of hydrogen peroxide was measured ([2]; 9 days, cyclodextrin 0.5%): 0.306; change in absorbance when 500 μM of hydrogen peroxide was measured ([2]; 9 days, cyclodextrin 2.0%): 0.311; change in absorbance when 500 μM of hydrogen peroxide was measured ([2]; 9 days, cyclodextrin 5.0%): 0.323; blank (distilled water) change in absorbance ([3]; 0 days): 0.115 Abs; blank (distilled water) change in absorbance ([3]; 2 days): 0.757 Abs; change in absorbance when 500 μM of hydrogen peroxide was measured ([3]; 0 days, cyclodextrin 0.5%): 0.175; change in absorbance when 500 μM of hydrogen peroxide was measured ([3]; 0 days, cyclodextrin 2.0%): 0.18; change in absorbance when 500 μM of hydrogen peroxide was measured ([3]; 0 days, cyclodextrin 5.0%): 0.181; change in absorbance when 500 μM of hydrogen peroxide was measured ([3]; 2 days, cyclodextrin 0.5%): 0.135; change in absorbance when 500 μM of hydrogen peroxide was measured ([3]; 2 days, cyclodextrin 2.0%): 0.136; change in absorbance when 500 μM of hydrogen peroxide was measured ([3]; 2 days, cyclodextrin 5.0%): 0.145; effect on the blank during preservation (in words) [4]: suppressing effects on the blank
